Data as given in US9555028B2, “Drug for preventing/treating ocular disease” (JAPAN BIO PRODUCTS CO., LTD., priority 2012, dated 2017).

Columns and labels:
[1] = system: Muc5ac protein in conjunctival tissue; assay: In vivo instillation, then amount of Muc5ac protein in conjunctival tissue lysate (ELISA); design: species or system white rabbit; settings: 100 μM instilled 4 times per day for 3 days; tissue lysate at 500 ng/μL protein, FIG. 4b
Experimental: (§1) Specifically, the right eye of a white rabbit was subjected to instillation administration of a solution containing 100 μM of Compound 1, which had been dissolved in a physiological saline solution, at a dosage of 30 μL to 50 μL/dose 4 times per day. The left eye was subjected to instillation administration of a physiological saline solution as a control at a dosage of 30 μL to 50 μL/dose 4 times per day. For each group, the experiment was performed at n=6.
After 3 days with the above administration, each white domestic rabbit was euthanized and its conjunctival tissue was sampled using a trephine with a diameter of 5 mm. […] The amount of Muc5ac included in the culture supernatant was quantified using the same ELISA assay as in Example 1.
Meanwhile, 150 μL of SDS(−) RIPA lysis buffer (manufactured by Nacalai Tesque, Inc.) was added to the conjunctival tissue collected, and the tissue was soaked and incubated at 4° C. for 30 minutes, followed by homogenization. […] After a protein concentration was measured using Nano Drop (manufactured by Thermo Scientific, Inc.), the protein concentration was adjusted to 500 ng/μL. Subsequently, the amount of Muc5ac included in the protein solution prepared was quantified using the same ELISA assay as in Example 1.

[2] = system: Muc5ac secretion from conjunctival tissue; assay: Ex vivo Muc5ac secretion from conjunctival tissue, culture supernatant quantified by ELISA; type: cell-based, white rabbit; settings: for amount of Muc5ac in culture supernatant in the presence of Compound 1: n=5, FIG. 1(b)
Experimental: In order to examine an effect of Compound 1 on an amount of Muc5ac secretion, ex vivo experiments were carried out using a conjunctival tissue from a white rabbit (Slc:JW/CSKSlc:NZW strain).
Specifically, a trephine with a diameter of 3 mm was used to sample a conjunctival tissue from a white rabbit. Next, the tissue sample was soaked in an HBSS containing 100 μM of Compound 1 for 90 minutes, 3 hours, 6 hours, or 12 hours. The conjunctival tissue of the control group was soaked in an HBSS having a physiological saline with a volume equal to that of Compound 1. After the conjunctival tissue was soaked for a predetermined time, its culture supernatant was collected. For each group, the experiment was performed at n=5.
The amount of Muc5ac included in the culture supernatant was detected using the following assay.
Assay for Muc5ac Secretion (ELISA Assay)
First, the culture supernatant of the conjunctival tissue of the control group was diluted using an HBSS, and a standard curve was prepared at a Muc5ac concentration of 500, 250, 125, 62.5, 31.25, 15.63, and 7.81 AU/mL (AU represents an arbitrary unit). The sample solutions were diluted with an HBSS in such a manner that absorbance at a wavelength of 450 nm was fitted within a range of the absorbance of the standard curve at a wavelength of 450 nm. Next, the solutions for the standard curve, the sample solutions for the test group, and the sample solutions for the control group were added to a 96-well microplate (#3590, manufactured by Corning Incorporated) at 100 μL/well, and were incubated overnight at 40° C. For each sample, the measurement was performed at n=2.
After the solutions for the standard curve and the sample solutions were removed, 200 μL of washing buffer was used to wash the wells three times. The washing buffer (hereinafter, also referred to as a TBST solution) was prepared by adding Tween-20 at a final concentration of 0.05% to Tris buffered saline (pH 7.6).
Then, 200 μL of blocking buffer (1% bovine serum albumin-containing TBST solution) was added to each well, and the plate was incubated at room temperature for 1 hour. After the blocking buffer had been removed, a primary antibody (an anti-human Muc5ac antibody, manufactured by NeoMarkers, Inc.; Clone 45M1) solution, which was 100-fold diluted with the blocking buffer, was added to the plate at 100 μL/well, and the plate was incubated at room temperature for 1 hour. After the primary antibody solution was removed, 200 μL of the washing buffer was used to wash the wells three times.
Then, a secondary antibody (an HRP-labelled sheep anti-mouse IgG antibody, manufactured by GE Healthcare, Inc.) solution, which was 2000-fold diluted with the blocking buffer, was added to the plate at 100 μL/well, and the plate was incubated at room temperature for 1 hour. After the secondary antibody solution was removed, 200 μL of the washing buffer was used to wash the wells three times.
In order to quantify the Muc5ac content in each sample, 100 μL of 3,3′,5,5′-tetramethylbenzidine was added to each well and the plate was incubated for coloring at room temperature for 30 minutes; and then 100 μL of 0.5 M sulfuric acid solution was added to each well to stop the reaction. Next, a microplate reader was used to measure the absorbance of each well at a wavelength of 450 nm. The Muc5ac content in each sample was calculated using the standard curve. […]
The amount of Muc5ac included in the culture supernatant was detected using the same ELISA assay as in Example 1.

[3] = system: Muc5ac in conjunctival tissue; assay: In vivo instillation, then PAS staining of conjunctival tissue sections; design: species or system white rabbit; settings: 100 μM instilled 4 times per day, FIG. 5
Experimental: as §1
Further, the conjunctival tissues from the control group and the administration group were subjected to PAS staining, which stains neutral polysaccharides and glycoproteins. Specifically, a conjunctival tissue was collected from a rabbit; the conjunctive tissue collected was cut into regions at the upper, nasal, lower, and ear sides; and paraffin sections were prepared. Next, after washed with distilled water for deparaffinization, the sections were immersed in 3% acetic acid aqueous solution and soaked in an alcian blue solution for 30 minutes. After washed with distilled water, the sections were soaked in 1% periodic acid aqueous solution for 10 minutes, washed with running water for 5 minutes, and washed with distilled water. After soaked in a cold Schiff reagent for 10 minutes, the sections were soaked in sulfurous acid solution for 3 minutes and subjected to sulfurous acid solution treatment. […]

[4] = system: corneal epithelial tissue wound; assay: Wound healing effect on corneal epithelial tissue in vivo (fluorescein staining, wound area); design: species or system white rabbit; settings: 100 μM solution instilled 30-50 μL/dose 4 times per day
Experimental: In order to examine an wound healing effect of Compound 1 on an corneal epithelial tissue, in vivo experiments were carried out using white rabbits (Slc:JW/CSKSlc:NZW strain).
as §1, with “a trephine with a diameter of 8 mm was used to create a wound on a corneal epithelial tissue” for “the right eye”, “rabbit. From the day of creating the wound, the test group” for “rabbit”, “control group” for “left eye”, “solution” for “solution as a control”, “n=5.” for “n=6.”
In order to determine the area of the wound on the corneal epithelial tissue, a physiological saline solution and a fluorescein test paper were used to perform fluorescein staining of the corneal epithelial tissue; and a time course change in the area of the wound on the corneal epithelium was observed while its photographs were taken. The wound area was image-processed using Image J software and was statistically analyzed.

Muc5ac secretion = assay: In vivo instillation, then Muc5ac secreted into culture supernatant of sampled conjunctival tissue (ELISA); design: species or system white rabbit; settings: 100 μM instilled 4 times per day for 3 days; tissue soaked in HBSS 1.5 and 3 hours, n=6, FIG. 4a
Experimental: In order to examine whether or not Compound 1 enhances Muc5ac secretion, in vivo experiments were carried out using white rabbits (Slc:JW/CSKSlc:NZW strain).
as §1
After 3 days with the above administration, each white domestic rabbit was euthanized and its conjunctival tissue was sampled using a trephine with a diameter of 5 mm. The sample was soaked in an HBSS; its culture supernatant was collected after an hour and a half; and further, after 3 hours, its culture supernatant and conjunctival tissue were collected. The amount of Muc5ac included in the culture supernatant was quantified using the same ELISA assay as in Example 1.

O=C1NC(CO)C(=O)N2CC(O)CC12 [Compound 1, cyclo-trans-4-L-hydroxyprolyl-L-serine]
amount of Muc5ac protein in the conjunctival tissue versus control group [1]: approximately equal | amount of Muc5ac in culture supernatant, concentration dependence ([2]; 0, 1, 10 or 100 μM, soaked 6 hours, n=5, FIG. 2): increased depending on the concentration | difference in the amount of Muc5ac between presence and absence of Compound 1, across culture times ([2]; 100 μM in HBSS, at 6 hours of culturing): most prominent | amount of Muc5ac in culture supernatant compared with absence of Compound 1 ([2]; 100 μM in HBSS, cultured 3 hours, n=5, FIG. 1(a)): increased | amount of Muc5ac in culture supernatant in the presence of Compound 1 ([2]; 100 μM in HBSS, cultured 6 hours): increase | amount of Muc5ac in culture supernatant in the presence of Compound 1 ([2]; 100 μM in HBSS, cultured 12 hours): increase | amount of Muc5ac (stained red-purple) in the conjunctival tissue by PAS staining versus control group [3]: apparently lower | wound area of corneal epithelium versus control group ([4]; from Day 1, t-test p<0.01, FIG. 3): smaller | time required for complete cure of the wound ([4]; control group 5 days): 4 days | amount of Muc5ac in culture supernatant of conjunctival tissue compared with control group (Muc5ac secretion): remarkably high
